Experimental data: patent publication US20040086880A1, “Method of producing nucleic acid molecules with reduced secondary structure” (priority 1999, published 2004)

Target: T1, Bst DNA polymerase (Geobacillus stearothermophilus, UniProt P52026)
T1 construct: purchased New England Biolabs
T1 sequence (P52026 290-876 limits assumed): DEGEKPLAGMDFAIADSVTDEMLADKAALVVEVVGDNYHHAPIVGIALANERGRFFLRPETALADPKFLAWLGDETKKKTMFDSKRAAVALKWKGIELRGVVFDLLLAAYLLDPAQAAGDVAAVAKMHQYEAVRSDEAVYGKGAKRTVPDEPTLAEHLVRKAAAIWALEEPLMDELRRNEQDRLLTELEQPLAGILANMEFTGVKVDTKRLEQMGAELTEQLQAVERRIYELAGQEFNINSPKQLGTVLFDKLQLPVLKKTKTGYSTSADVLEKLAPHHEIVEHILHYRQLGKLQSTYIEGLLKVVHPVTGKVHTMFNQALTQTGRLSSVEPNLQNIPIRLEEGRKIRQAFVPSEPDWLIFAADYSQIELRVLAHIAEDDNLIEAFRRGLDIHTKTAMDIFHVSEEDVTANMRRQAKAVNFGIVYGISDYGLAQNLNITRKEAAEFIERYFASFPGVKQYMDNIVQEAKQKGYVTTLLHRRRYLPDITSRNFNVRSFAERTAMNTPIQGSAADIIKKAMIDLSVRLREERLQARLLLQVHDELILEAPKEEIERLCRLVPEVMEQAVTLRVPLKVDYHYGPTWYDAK
Assay: Single nucleotide extension of 6-mer primers at varying dNTP concentration
Assay type: biochemical
Settings: for extension efficiency of 6-mer primer compared with natural dNTP: dNTP 0.5 microM to 130 microM, 45° C., 8 hours
Method: To further assess the incorporation efficiency of the modified nucleotides by Bst DNA polymerase, the efficiency for a single nucleotide extension reaction was determined using two 6-mer primers in the presence of varying concentrations of dATP, 2-amino-2′-deoxyadenosine-5′-triphosphate, dTTP or 2-thiothymidine-5′-triphosphate (illustrated as 2-thioTTP) (FIGS. 3A and 4A). For this study, the reaction mixtures contained: 20 mM Tris-Cl (pH 8.8 @ 25° C.), 10 mM KCl, 10 mM (NH4)2SO4, 2 mM MgSO4, 0.1% Triton-X100, 500 nanoM 6-mer primer, 20 nanoM 30-mer DNA template, 0.8 units/microL (˜70 nanoM) Bst DNA polymerase and a dNTP concentration ranging from 0.5 microM to 130 microM. The reaction mixtures were incubated at 45° C. for 8 hours and separated by electrophoresis on 20% denaturing (7M urea) polyacrylamide gels.

For `Nc1nc(N)c2ncn([C@H]3C[C@H](O)[C@@H](COP(=O)(O)OP(=O)(O)OP(=O)(O)O)O3)c2n1` [2-amino-2′-deoxyadenosine-5′-triphosphate], the “extension efficiency of 6-mer primer compared with natural dNTP” value was “approximately equal efficiencies”.
In the case of `Cc1cn([C@H]2C[C@H](O)[C@@H](COP(=O)(O)OP(=O)(O)OP(=O)(O)O)O2)c(=S)[nH]c1=O` [2-thiothymidine-5′-triphosphate], the EC50 is reported as roughly 6 µM and the “extension efficiency of 6-mer primer compared with natural dNTP” value is reported as “very similar”.
